Tests used:
[1] = test system: patients with treatment-resistant major depressive disorder; test: Clinical trial of inhaled 5-MeO-DMT in TRD patients: depression severity and psychiatric symptom scales
[2] = test system: healthy volunteers; test: Clinical trial of inhaled 5-MeO-DMT in healthy volunteers: intensity of the psychedelic effects (PPEQ); assay type: in vivo, human
Description: The trial consisted of two parts: Part A, where single doses of 5-MeO-DMT dosage amounts of 2 mg, 6 mg, 12 mg and 18 mg were administered; and Part B, where an initial 5-MeO-DMT dosage amount of 6 mg was administered, and then, unless the participant had already experienced a peak psychedelic experience based on the PPEQ or the supervising physician had decided that further dose increases were inappropriate based on observed side effects, further subsequent dosage amounts of 12 mg and 18 mg were administered with about 3 hours in between each administration. […] Pharmacokinetic analysis of 5-MeO-DMT and bufotenine plasma levels was performed at 1 hour and 3 hours after drug administration in Part A, and at 3 hours after drug administration in Part B.
18 participants were recruited into Part A of the study and 4 participants were recruited into Part B. 9 Participants were female and 13 participants were male. Median age was 29 years (range: 19 to 42 years). […]
The Peak Psychedelic Experience Questionnaire (PPEQ) has been developed by the inventor as an improved alternative to the oceanic boundlessness dimension of the ASC and the MEQ30 to allow a simpler and quicker assessment of the intensity of a psychedelic experience. The PPEQ is comprised of three questions, all to be scored from 0 to 100 by marking a Visual Analogue Scale between 0 and 100 mm: • 1. […]

[3] = Patient 1, 7 d after single 12 mg inhaled dose, baseline 1
[4] = Patient 1, 7 d after single 12 mg inhaled dose, baseline 5
[5] = Patient 2, 2 h after single 12 mg inhaled dose, baseline 5
[6] = Patient 2, 1 d after single 12 mg inhaled dose, baseline 5
[7] = Patient 2, 7 d after single 12 mg inhaled dose, baseline 5
[8] = both patients, after single 12 mg inhaled dose
[9] = both patients, all assessment time points (2 h, 1 d, 7 d) after single 12 mg inhaled dose
[10] = both patients, single 12 mg inhaled dose

SMILES: COc1ccc2[nH]cc(CCN(C)C)c2c1 [5-MeO-DMT, 5-methoxy-N,N-dimethyltryptamine]
- BPRS Anxiety (1-7) ([1]; Patient 1, 1 d after single 12 mg inhaled dose, baseline 7): 1
- MADRS (overall score 0 to 60) ([1]; Patient 1, 1 d after single 12 mg inhaled dose, baseline 31): 8
- BPRS (total, 18 symptoms each rated 1-7) ([1]; Patient 1, 1 d after single 12 mg inhaled dose, baseline 42): 18
- C-SSRS Suicidal Ideation (any of the suicidal ideation items present) ([1]; Patient 1, 1 d after single 12 mg inhaled dose, baseline Yes): No
- PGI-I (7-point scale; 1, Very much improved; 2, Much improved; 7, Very much worse) ([1]; Patient 1, 7 d after single 12 mg inhaled dose): 1
- BPRS Unusual thought content (1-7) [1, 3]: 1
- MADRS suicidal thoughts item (0 to 6) [1, 3]: 0
- BPRS Somatic concern (1-7) ([1]; Patient 1, 7 d after single 12 mg inhaled dose, baseline 3): 1
- BPRS Tension (1-7) ([1]; Patient 1, 7 d after single 12 mg inhaled dose, baseline 4): 1
- BPRS Guilt feelings (1-7) [1, 4]: 1
- PGI-S (7-point scale; 1, Normal, not at all ill; 7, Extremely ill) [1, 4]: 1
- BPRS Depressive Mood (1-7) ([1]; Patient 1, 7 d after single 12 mg inhaled dose, baseline 6): 1
- BPRS Anxiety (1-7) ([1]; Patient 1, 7 d after single 12 mg inhaled dose, baseline 7): 1
- MADRS (overall score 0 to 60) ([1]; Patient 1, 7 d after single 12 mg inhaled dose, baseline 31): 3
- BPRS (total, 18 symptoms each rated 1-7) ([1]; Patient 1, 7 d after single 12 mg inhaled dose, baseline 42): 18
- C-SSRS Suicidal Ideation (any of the suicidal ideation items present) ([1]; Patient 1, 7 d after single 12 mg inhaled dose, baseline Yes): No
- PGI-I (7-point scale; 1, Very much improved; 2, Much improved; 7, Very much worse) ([1]; Patient 2, 2 h after single 12 mg inhaled dose): 2
- MADRS suicidal thoughts item (0 to 6) ([1]; Patient 2, 2 h after single 12 mg inhaled dose, baseline 1): 0
- BPRS Tension (1-7) ([1]; Patient 2, 2 h after single 12 mg inhaled dose, baseline 3): 1
- BPRS Somatic concern (1-7) ([1]; Patient 2, 2 h after single 12 mg inhaled dose, baseline 4): 1
- BPRS Anxiety (1-7) [1, 5]: 2
- BPRS Depressive Mood (1-7) [1, 5]: 3
- BPRS Guilt feelings (1-7) [1, 5]: 1
- PGI-S (7-point scale; 1, Normal, not at all ill; 7, Extremely ill) [1, 5]: 1
- BPRS Unusual thought content (1-7) ([1]; Patient 2, 2 h after single 12 mg inhaled dose, baseline 6): 1
- MADRS (overall score 0 to 60) ([1]; Patient 2, 2 h after single 12 mg inhaled dose, baseline 33, sleep item carried forward from baseline): 9
- BPRS (total, 18 symptoms each rated 1-7) ([1]; Patient 2, 2 h after single 12 mg inhaled dose, baseline 45): 26
- C-SSRS Suicidal Ideation (any of the suicidal ideation items present) ([1]; Patient 2, 2 h after single 12 mg inhaled dose, baseline No): No
- PGI-I (7-point scale; 1, Very much improved; 2, Much improved; 7, Very much worse) ([1]; Patient 2, 1 d after single 12 mg inhaled dose): 2
- MADRS suicidal thoughts item (0 to 6) ([1]; Patient 2, 1 d after single 12 mg inhaled dose, baseline 1): 1
- BPRS Tension (1-7) ([1]; Patient 2, 1 d after single 12 mg inhaled dose, baseline 3): 1
- BPRS Somatic concern (1-7) ([1]; Patient 2, 1 d after single 12 mg inhaled dose, baseline 4): 1
- BPRS Anxiety (1-7) [1, 6]: 1
- BPRS Depressive Mood (1-7) [1, 6]: 1
- BPRS Guilt feelings (1-7) [1, 6]: 1
- PGI-S (7-point scale; 1, Normal, not at all ill; 7, Extremely ill) [1, 6]: 1
- BPRS Unusual thought content (1-7) ([1]; Patient 2, 1 d after single 12 mg inhaled dose, baseline 6): 1
- MADRS (overall score 0 to 60) ([1]; Patient 2, 1 d after single 12 mg inhaled dose, baseline 33): 5
- BPRS (total, 18 symptoms each rated 1-7) ([1]; Patient 2, 1 d after single 12 mg inhaled dose, baseline 45): 19
- C-SSRS Suicidal Ideation (any of the suicidal ideation items present) ([1]; Patient 2, 1 d after single 12 mg inhaled dose, baseline No): No
- PGI-I (7-point scale; 1, Very much improved; 2, Much improved; 7, Very much worse) ([1]; Patient 2, 7 d after single 12 mg inhaled dose): 2
- MADRS suicidal thoughts item (0 to 6) ([1]; Patient 2, 7 d after single 12 mg inhaled dose, baseline 1): 0
- BPRS Tension (1-7) ([1]; Patient 2, 7 d after single 12 mg inhaled dose, baseline 3): 1
- BPRS Somatic concern (1-7) ([1]; Patient 2, 7 d after single 12 mg inhaled dose, baseline 4): 1
- BPRS Anxiety (1-7) [1, 7]: 1
- BPRS Depressive Mood (1-7) [1, 7]: 1
- BPRS Guilt feelings (1-7) [1, 7]: 1
- PGI-S (7-point scale; 1, Normal, not at all ill; 7, Extremely ill) [1, 7]: 1
- BPRS Unusual thought content (1-7) ([1]; Patient 2, 7 d after single 12 mg inhaled dose, baseline 6): 1
- MADRS (overall score 0 to 60) ([1]; Patient 2, 7 d after single 12 mg inhaled dose, baseline 33): 5
- BPRS (total, 18 symptoms each rated 1-7) ([1]; Patient 2, 7 d after single 12 mg inhaled dose, baseline 45): 18
- C-SSRS Suicidal Ideation (any of the suicidal ideation items present) ([1]; Patient 2, 7 d after single 12 mg inhaled dose, baseline No): No
- Other general psychiatric symptoms assessed by the BPRS (somatic concern, anxiety, guilt, tension) [1, 8]: improved
- Ratings for suicidality (suicidal thoughts item of the MADRS, C-SSRS Suicidal Ideation items) [1, 8]: improved
- MADRS remission (MADRS total score equal or less than 10) [1, 9]: fulfilled standard criteria
- MADRS response (at least 50% improvement from baseline) [1, 9]: fulfilled standard criteria
- Time to clinical remission after a single administration [1, 10]: ≤ 2 h
- Time to clinical response after administration [1, 10]: ≤ 2 h
- Intensity of the psychedelic experience with dose escalation ([2]; Part B, 6 mg, then 12 mg and 18 mg about 3 hours apart): increased with the increasing dosage amounts in all participants
- Onset of the first psychedelic symptoms after the inhalation ([2]; all participants, 2 to 18 mg inhaled): within a few seconds

From patent US20250134861A1, “COMPOSITIONS COMPRISING 5-METHOXY-N,N-DIMETHYLTRYPTAMINE (5-MEO-DMT) FOR USE IN TREATING MENTAL DISORDERS” (GH RESEARCH IRELAND LIMITED, priority 2019, published 2025)
